We go through 22 compounds from ChEMBL document CHEMBL4680350, “Novel penta-1,4-diene-3-one derivatives containing quinazoline and oxime ether fragments: Design, synthesis and bioactivity” (Bioorg Med Chem, 2021).

In experiment [1] the test system is SMMC-7721. Put plainly: Anticancer activity against human SMMC-7721 cells assessed as inhibition of cell proliferation at 10 uM measured after 72 hrs by MTT assay. The class given is functional.
Experiment [2] concerns SMMC-7721. The experiment in a line: Anticancer activity against human SMMC-7721 cells assessed as inhibition of cell proliferation at 1 uM measured after 72 hrs by MTT assay. It is filed as functional.
In experiment [3] the test system is SMMC-7721. The experiment in a line: Antimigratory activity against human SMMC-7721 cells assessed as inhibition of cell migration at 10 uM measured after 12 hrs by cell scratch assay. It is filed as functional, cell-based.
Experiment [4] deals with SMMC-7721. Put plainly: Anticancer activity against human SMMC-7721 cells assessed as inhibition of cell proliferation measured after 72 hrs by MTT assay. It is filed as functional, cell-based. The settings on record: SMMC-7721, 72 h.
The test system of experiment [5] is SMMC-7721. The experiment in a line: Induction of apoptosis in human SMMC-7721 cells assessed as increase in caspase 3 level upto 20 uM incubated for 48 hrs by Western blot analysis. The class given is functional, cell-based. The settings on record: dose microM <=20, time 48.0 hrs.
Experiment [6] relates to SMMC-7721. Put plainly: Induction of cell cycle arrest in human SMMC-7721 cells assessed as accumulation of cells at […] measured after 24 hrs by flow cytometry. It is filed as functional, cell-based.
Experiment [7] has as its system SMMC-7721. Put plainly: Induction of apoptosis in human SMMC-7721 cells assessed as increase in PARP-1 level t 1 to 20 uM incubated for 48 hrs by Western blot analysis. It is filed as functional, cell-based. The settings on record: dose 1-20 µM.
Experiment [8] relates to SMMC-7721. The experiment in a line: Antimigratory activity against human SMMC-7721 cells assessed as inhibition of cell migration measured after 12 hrs by cell scratch assay. It is filed as functional, cell-based.
Experiment [9] has as its system SMMC-7721. The experiment in a line: Cytotoxicity against human SMMC-7721 cells assessed as change in cell morphology at 1 uM incubated for 24 hrs. The class given is functional, cell-based.
Experiment [10] concerns SMMC-7721. Put plainly: Cytotoxicity against human SMMC-7721 cells assessed as change in cell morphology at 10 uM incubated for 48 hrs. It is filed as functional, cell-based.
Experiment [11] has as its system SMMC-7721. The experiment in a line: Induction of cell cycle arrest in human SMMC-7721 cells assessed as accumulation of cells at G2/M measured after 24 hrs by flow cytometry. It is filed as functional, cell-based.
For experiment [12], the system named is SMMC-7721. The experiment in a line: Induction of apoptosis in human SMMC-7721 cells as late apoptotic cells at 20 uM measured after 48 hrs by annexin V-FITC/PI based flow cytometric analysis relative to control. It is filed as functional.
The subject of experiment [13] is SMMC-7721. The experiment in a line: Induction of apoptosis in human SMMC-7721 cells as late apoptotic cells at 5 uM measured after 48 hrs by annexin V-FITC/PI based flow cytometric analysis relative to control. It is filed as functional.
Experiment [14] relates to SMMC-7721. Put plainly: Induction of apoptosis in human SMMC-7721 cells assessed as increase in PARP-1 level t 1 to 5 uM incubated for 48 hrs by Western blot analysis. The class given is functional, cell-based. The note with it: dose 1-5 µM.
Experiment [15] deals with SMMC-7721. Put plainly: Induction of apoptosis in human SMMC-7721 cells at 5 uM measured after 48 hrs by annexin V-FITC/PI based flow cytometric analysis relative to control. It is filed as functional.
The test system of experiment [16] is SMMC-7721. The experiment in a line: Induction of apoptosis in human SMMC-7721 cells at 1 uM measured after 48 hrs by annexin V-FITC/PI based flow cytometric analysis relative to control. It is filed as functional.
Experiment [17] has as its system SMMC-7721. The experiment in a line: Induction of apoptosis in human SMMC-7721 cells assessed as decrease in PARP-1 level t 10 to 20 uM incubated for 48 hrs by Western blot analysis. The class given is functional, cell-based. The note with it: dose 10-20 µM.

Activity calls are given as the source filed them. No cut-off for these calls is given here.

For `Cc1cccc2ncnc(O/N=C(\C=C\c3ccccn3)/C=C/c3ccccc3OCc3ccc(Cl)cc3)c12`, in the experiment with SMMC-7721 [1], the inhibition at 10 µM amounted to 94.5%. In addition, the inhibition at 1 µM in the experiment with SMMC-7721 [2] was 93.4%.
Turning to `Clc1ccc(COc2ccccc2/C=C/C(/C=C/c2ccccn2)=N/Oc2ncnc3ccccc23)c(Cl)c1`, the result with SMMC-7721 [3] and in the experiment with SMMC-7721 [8] was inactive. Further, the inhibition at 10 µM with SMMC-7721 [1] stood at 87.5%. For the same compound, the IC50 in the experiment on SMMC-7721 [4] is 8.55 µM. Besides, the result in the experiment on SMMC-7721 [5], in the experiment with SMMC-7721 [6] and in the experiment on SMMC-7721 [7] was Active. Also, the inhibition at 1 µM in the experiment on SMMC-7721 [2] was 33.3%.
As to `Clc1ccc(COc2ccc(/C=C/C(/C=C/c3ccccn3)=N/Oc3ncnc4cc(Cl)ccc34)cc2)cc1`, the result in the experiment with SMMC-7721 [9], in the experiment on SMMC-7721 [10], in the experiment on SMMC-7721 [11], in the experiment on SMMC-7721 [5] and with SMMC-7721 [7] was Active. For the same compound, the result with SMMC-7721 [3] and in the experiment with SMMC-7721 [8] was inactive. In addition, in the experiment with SMMC-7721 [1], the inhibition at 10 µM was 88.1%. For the same compound, in the experiment with SMMC-7721 [4], the IC50 was found to be 0.63 µM. For the same compound, the inhibition at 1 µM with SMMC-7721 [2] turned out to be 67.4%. In the experiment on SMMC-7721 [12], this compound displayed an Activity of 88%.
In the case of `Cc1cccc2ncnc(O/N=C(/C=C/c3ccc(OCc4ccccc4Cl)cc3)\C=C\c3ccccn3)c12`, the inhibition at 10 µM with SMMC-7721 [1] was 84.7%. For the same compound, the inhibition at 1 µM in the experiment on SMMC-7721 [2] came out at 77%.
Taken in the same sequence, the figures for `Clc1ccc2c(O/N=C(\C=C\c3ccccn3)/C=C/c3ccccc3OCc3ccccc3Cl)ncnc2c1` were 94.5% and 94.8%.
For the compound `Clc1ccc(COc2ccccc2/C=C/C(/C=C/c2ccccn2)=N/Oc2ncnc3cc(Cl)ccc23)c(Cl)c1`, the result with SMMC-7721 [3] and in the experiment on SMMC-7721 [8] was inactive. Further, the inhibition at 10 µM in the experiment with SMMC-7721 [1] came out at 91.8%. In addition, the IC50 in the experiment on SMMC-7721 [4] came to 10.4 µM. The result in the experiment with SMMC-7721 [11] and with SMMC-7721 [5] was Active. The inhibition at 1 µM in the experiment with SMMC-7721 [2] is 23.6%.
Turning to `Cc1cccc2ncnc(O/N=C(\C=C\c3ccccn3)/C=C/c3ccccc3OCc3ccc(Cl)cc3Cl)c12`, in the experiment with SMMC-7721 [1], the inhibition at 10 µM came out at 93.9%. In addition, the inhibition at 1 µM in the experiment on SMMC-7721 [2] came out at 90.8%.
With `Fc1ccccc1COc1ccccc1/C=C/C(/C=C/c1ccccn1)=N/Oc1ncnc2cc(Cl)ccc12`, the outcome with SMMC-7721 [9] and in the experiment with SMMC-7721 [10] was Active. For the same compound, the inhibition at 10 µM in the experiment with SMMC-7721 [1] is 94.8%. Moreover, the inhibition at 1 µM in the experiment with SMMC-7721 [2] was 94.2%.
Take `Clc1ccc2c(O/N=C(/C=C/c3ccc(OCc4ccccc4Cl)cc3)\C=C\c3ccccn3)ncnc2c1`: the inhibition at 10 µM in the experiment with SMMC-7721 [1] is 84.7%. In addition, the inhibition at 1 µM with SMMC-7721 [2] is 18.1%.
For the compound `Clc1ccc(COc2ccccc2/C=C/C(/C=C/c2ccccn2)=N/Oc2ncnc3cc(Cl)ccc23)cc1`, the inhibition at 10 µM with SMMC-7721 [1] was found to be 94.8%. Besides, the inhibition at 1 µM in the experiment with SMMC-7721 [2] is 94%.
On the same counts, the results for `Clc1ccccc1COc1ccc(/C=C/C(/C=C/c2ccccn2)=N/Oc2ncnc3ccccc23)cc1` are 96.9% and 10.1%.
Regarding `Clc1ccc(COc2ccc(/C=C/C(/C=C/c3ccccn3)=N/Oc3ncnc4ccccc34)cc2)cc1`, the inhibition at 10 µM in the experiment with SMMC-7721 [1] worked out at 94.4%. For the same compound, in the experiment with SMMC-7721 [2], the inhibition at 1 µM was found to be 91.2%.
Taken in the same sequence, the figures for `Cc1cccc(COc2ccc(/C=C/C(/C=C/c3ccccn3)=N/Oc3ncnc4cccc(C)c34)cc2)c1` were 97% and 93.4%.
As for `Clc1ccc(COc2ccc(/C=C/C(/C=C/c3ccccn3)=N/Oc3ncnc4ccccc34)cc2)c(Cl)c1`, in the experiment on SMMC-7721 [1], the inhibition at 10 µM turned out to be 89.6%.
Consider `Clc1ccccc1COc1ccccc1/C=C/C(/C=C/c1ccccn1)=N/Oc1ncnc2ccccc12`, for which the inhibition at 10 µM with SMMC-7721 [1] came to 96%. For the same compound, the inhibition at 1 µM in the experiment on SMMC-7721 [2] stood at 95.7%.
With `Nc1ccn([C@@H]2O[C@H](CO)[C@@H](O)C2(F)F)c(=O)n1` [GEMCITABINE], the inhibition at 10 µM in the experiment with SMMC-7721 [1] is 61.5%. Besides, the IC50 in the experiment with SMMC-7721 [4] was 1.4 µM. Besides, the inhibition at 1 µM with SMMC-7721 [2] stood at 38.5%.
As for `Cc1cccc(COc2ccc(/C=C/C(/C=C/c3ccccn3)=N/Oc3ncnc4cc(Cl)ccc34)cc2)c1`, the inhibition at 10 µM in the experiment on SMMC-7721 [1] stood at 95.6%. In addition, the inhibition at 1 µM in the experiment on SMMC-7721 [2] was found to be 78.6%.
As for `Clc1ccc(COc2ccc(/C=C/C(/C=C/c3ccccn3)=N/Oc3ncnc4cc(Cl)ccc34)cc2)c(Cl)c1`, the inhibition at 10 µM in the experiment with SMMC-7721 [1] came to 23.6%.
For the compound `Cc1cccc(COc2ccc(/C=C/C(/C=C/c3ccccn3)=N/Oc3ncnc4ccccc34)cc2)c1`, the outcome with SMMC-7721 [9], in the experiment on SMMC-7721 [10], in the experiment with SMMC-7721 [11], with SMMC-7721 [14], in the experiment with SMMC-7721 [5] and in the experiment on SMMC-7721 [17] was Active. The figures for the Activity in the experiment on SMMC-7721 [13], in the experiment with SMMC-7721 [15] and with SMMC-7721 [16] were 99.4%, 99.9% and 23%, respectively. The outcome in the experiment with SMMC-7721 [3] and in the experiment with SMMC-7721 [8] was inactive. Further, in the experiment on SMMC-7721 [1], the inhibition at 10 µM is 97.5%. Besides, the IC50 in the experiment with SMMC-7721 [4] amounted to 0.64 µM. Further, the inhibition at 1 µM in the experiment on SMMC-7721 [2] came to 69.2%.
For the compound `Clc1ccc(COc2ccc(/C=C/C(/C=C/c3cccs3)=N/Oc3ncnc4ccccc34)cc2)cc1`, in the experiment with SMMC-7721 [1], the inhibition at 10 µM was determined as 97.5%. In addition, in the experiment with SMMC-7721 [2], the inhibition at 1 µM was found to be 89.3%.
`Fc1ccccc1COc1ccc(/C=C/C(/C=C/c2ccccn2)=N/Oc2ncnc3cc(Cl)ccc23)cc1`: the inhibition at 10 µM in the experiment with SMMC-7721 [1] was found to be 91.2%. Also, the inhibition at 1 µM in the experiment on SMMC-7721 [2] came to 81.1%.
Consider `Cc1cccc2ncnc(O/N=C(\C=C\c3ccccn3)/C=C/c3ccccc3OCc3ccccc3Cl)c12`, for which the inhibition at 10 µM in the experiment on SMMC-7721 [1] is 95.7%. The inhibition at 1 µM in the experiment with SMMC-7721 [2] is 86.8%.
